In data set [1] the test system is Bacillus subtilis spores. Description: Spore suspension test, killing of Bacillus subtilis spores. The data set is classed as cell-based. The conditions noted are these: for Log Reduction/mL (3 hr, 20° C., pH = 8): Table 4B; for Log Reduction/mL (20° C., 4 hrs): [NaHCO3], 0 mM.
Data set [2] in a line: Storage stability of phthalaldehyde solution (loss by Cannizzaro reaction). The data set is classed as physicochemical. The following applies: stored about 11 weeks. An excerpt:
Overall, the Cannizzaro reaction generally leads to loss of phthalaldehyde and a decrease in the germicidal efficacy of the solution. While a pH of from 6 to 10, or 7.5 to 9 generally enhances the efficacy of the phthalaldehyde-carbonate solution, the higher or alkaline pH also generally promotes the Cannizzaro reaction. […] However, about 14% of the phthalaldehyde may be lost if the same solution is stored for about 11 weeks at a pH of 9, at room temperature. Even more of the phthalaldehyde may be converted if the storage period is longer, if the temperature is higher, or if the pH is higher than 9.

The conditions of data set [3]: pH range of 3 to 9, single component, per the '999 patent; cited from earlier work.
For data set [4] the following is noted: cited from earlier work.
In data set [5] the test system is Bacillus subtilis spores. The conditions noted are these: cited from earlier work.
The test system of data set [6] is Clostridium sporogenes spores. The conditions noted are these: cited from earlier work.
In data set [7] the test system is Mycobacterium bovis BCG. The conditions noted are these: at least 0.25% by weight phthalaldehyde as the sole active ingredient, 20° C.; cited from earlier work.
For data set [8] the following is noted: Air in headspace. Here is the method: (§1) Experiments were conducted to determine the pressures of several bicarbonate solutions with different bicarbonate concentration, starting pH, and at different temperatures, with air initially in the headspace of the container. Several bicarbonate solutions of different concentration were prepared. The pH of the solutions were adjusted by sparging the solutions with carbon dioxide to achieve a starting pH. About 1030 mL of each solution was introduced into a different 1145 mL glass bottle that was equipped with a thermometer and a pressure sensor. The headspace of each bottle was flushed with air for about one minute and then the bottle was sealed with a stopper. […] The solutions were stirred at about 20° C. until all pressures stabilized. The pressures were recorded. The solutions were then heated in a water bath to 40° C., and then to 55° C., and the pressures were recorded at each of these temperatures. The experiments were conducted at sea level.

The conditions of data set [9]: CO2 in headspace. How it is done: as §1
Experiments were conducted to determine the pressures of sealed containers including bicarbonate solutions when the air initially present in the headspace of the containers was replaced with carbon dioxide. […] The experiments were conducted at sea level.

How the values of data set [10] were obtained: A 100 mL round-bottom flask having a capacity of about 135 mL was equipped with a septum, a stirrer bar, and a pressure sensor. […] About 65 mL of a bicarbonate solution having a particular concentration and pH was injected into the flask. Excess pressure was released through a needle on the septum. Carbon dioxide was sparged through the solution to obtain the listed pH and then the solution was sealed in the container with a stopper. The solution was stirred at a temperature of about 20° C. until a stable pressure was achieved. The procedure was repeated for other air partial pressures and bicarbonate solutions. The experiments were conducted at sea level.

Setting [11] is: Table 2, 20° C., 24 hr exposure, no pH control.
[12] abbreviates: Table 1, 20° C., 8 hr exposure, no pH control.
The mark [13] stands for this setting: Table 2, 20° C., 8 hr exposure, no pH control.
The mark [14] stands for this setting: Table 3, 20° C., 8 hr exposure, no pH control.
The mark [15] stands for this setting: Table 3, 20° C., 24 hr exposure, no pH control.
Where [16] appears, read: 0.25% phthalaldehyde as the sole active ingredient, 20° C.
[17] abbreviates: Table 2, 20° C., 4 hr exposure, no pH control.

The structures appear in SMILES notation. Like-named read-outs stand apart in the source and are kept apart here.

On to `[I-].[K+]` [1000 mM KI, potassium iodide], for which the “Log Reduction/mL (3 hr, 20° C., pH = 8)” value in [1] (20° C.) is recorded as 0.
As for `[Cl-].[Na+]` [1000 mM NaCl, sodium chloride], the “Log Reduction/mL (20° C.) 24 hr” value in data set [1] (setting [11]) was 0.2.
As to `O=Cc1ccccc1C=O` [0.3% OPA, 1,2-benzenedicarboxaldehyde], the “Log Reduction/mL (20° C.) 4 hr” value is on record as 0.5 in data set [1] (Table 1, 20° C., 4 hr exposure, no pH control) and 0.5 in data set [1] (Table 4A, pH 7.0, 20° C., 4 hr). In addition, the “Log Reduction/mL (20° C.) 8 hr” value is 0.6 in data set [1] (setting [12]); about 0.6 in [1] (setting [13]); about 0.6 in [1] (setting [14]); 0.6 in [1] (Table 4A, pH 7.0, 20° C., 8 hr). For the same compound, the “Log Reduction/mL (20° C.) 24 hr” value is recorded as 2.9 in data set [1] (Table 1, 20° C., 24 hr exposure, no pH control); about 2.9 in data set [1] (setting [15]); 2.9 in [1] (Table 4A, pH 7.0, 20° C., 24 hr). For the same compound, the “Log Reductions/mL (20° C.) 2 hr” value in [1] (Table 7, 20° C., 2 hr) amounted to 0.4. Also, the “Log Reductions/mL (20° C.) 4 hr” value in data set [1] (Table 7, 20° C., 4 hr) is recorded as 0.5; in data set [1] (Table 10, 20° C., 4 hr) it was 1.5. Also, the “Log Reductions/mL (20° C.) 6 hr” value in data set [1] (Table 7, 20° C., 6 hr) stood at 0.7. Moreover, the “Log Reductions/mL (20° C.) 8 hr” value in data set [1] (Table 7, 20° C., 8 hr) turned out to be 0.6. For the same compound, the “Log Reductions/mL (20° C.) 24 hr” value in data set [1] (Table 7, 20° C., 24 hr) worked out at 2.9; in data set [1] (Table 10, 20° C., 24 hr), 2.9. Further, the “Log Reduction/mL (20° C., 4 hrs)” value in [1] (Table 13, 20° C.) is listed as 0.5; in data set [1] (Table 14, 20° C.), 0.5; in data set [1] (Table 15, 20° C.) it was 0.5. In addition, the “loss of phthalaldehyde on storage” value in data set [2] (pH of 7 or lower, room temperature to about 40° C.) is reported as “without a noticeable loss”. Further, the “phthalaldehyde lost on storage” value in data set [2] (pH of 9, room temperature) was “about 14%”. Also, the “stability of compositions containing phthalaldehyde” value in data set [3] is listed as “excellent stability”. For the same compound, the solubility in water result in data set [4] is recorded as “about 5 % by weight”. The “time for sporicidal activity” value in data set [5] (setting [16]) and in data set [6] (setting [16]) was 24 h each time. The “time in which sterilization is achieved” value in data set [5] (1.0% phthalaldehyde) and in data set [6] (1.0% phthalaldehyde) was 10 h each time. Moreover, the “time to kill all Mycobacterium bovis BCG in contact with the composition” value in data set [7] was at most 10 min.
For `O=C([O-])O.[Na+]` [NaHCO3, sodium bicarbonate], the “Pressure Above Atmospheric Pressure (mmHg) 20° C.” value in data set [8] (pH 7.3, [NaHCO3] 0.02M) was 72 mmHg; in [8] (pH 7.4, [NaHCO3] 0.3M), 250 mmHg; in [8] (pH 7.8, [NaHCO3] 0.3M), 134 mmHg. Besides, the “Pressure Above Atmospheric Pressure (mmHg) 40° C.” value stood at 208 mmHg in data set [8] (pH 7.3, [NaHCO3] 0.02M); 570 mmHg in [8] (pH 7.4, [NaHCO3] 0.3M); 322 mmHg in data set [8] (pH 7.8, [NaHCO3] 0.3M). The “Pressure Above Atmospheric Pressure (mmHg) 55° C.” value in data set [8] (pH 7.3, [NaHCO3] 0.02M) worked out at 378 mmHg; in [8] (pH 7.4, [NaHCO3] 0.3M) it was 862 mmHg; in data set [8] (pH 7.8, [NaHCO3] 0.3M) it was 542 mmHg. For the same compound, the “Pressure Below (−) or Above (+) Atmospheric Pressure (mmHg) 20° C.” value in [9] (pH 7.2, [NaHCO3] 0.3M) is reported as −158 mmHg; in [9] (pH 7.3, [NaHCO3] 0.02M), −508 mmHg; in data set [9] (pH 7.4, [NaHCO3] 0.3M), −290 mmHg; in data set [9] (pH 7.8, [NaHCO3] 0.3M) it was −440 mmHg. The “Pressure Below (−) or Above (+) Atmospheric Pressure (mmHg) 40° C.” value in data set [9] (pH 7.2, [NaHCO3] 0.3M) was 202 mmHg; in data set [9] (pH 7.3, [NaHCO3] 0.02M), −348 mmHg; in data set [9] (pH 7.4, [NaHCO3] 0.3M) it was 0 mmHg; in data set [9] (pH 7.8, [NaHCO3] 0.3M), −246 mmHg. The “Pressure Below (−) or Above (+) Atmospheric Pressure (mmHg) 55° C.” value in [9] (pH 7.2, [NaHCO3] 0.3M) is given as 532 mmHg; in data set [9] (pH 7.3, [NaHCO3] 0.02M) it was −202 mmHg; in [9] (pH 7.4, [NaHCO3] 0.3M), 274 mmHg; in data set [9] (pH 7.8, [NaHCO3] 0.3M), −50 mmHg. Moreover, the “Final Pressure at Equilibrium (mmHg)” value was found to be 758 mmHg in data set [10] (initial air 440 / CO2 320 mmHg, NaHCO3 0.3 mole/L, pH 7.4, about 20° C.); 760 mmHg in [10] (initial air 674 / CO2 86 mmHg, NaHCO3 0.3 mole/L, pH 8.0, about 20° C.); 756 mmHg in data set [10] (initial air 726 / CO2 34 mmHg, NaHCO3 0.05 mole/L, pH 8.0, about 20° C.); 758 mmHg in [10] (initial air 740 / CO2 20 mmHg, NaHCO3 0.05 mole/L, pH 7.4, about 20° C.).
Turning to `[Br-].[Na+]` [1000 mM NaBr, sodium bromide], the “Log Reduction/mL (20° C.) 4 hr” value in data set [1] (setting [17]) turned out to be 0.0. In addition, in data set [1] (setting [11]), the “Log Reduction/mL (20° C.) 24 hr” value is 0.1.
`[I-].[Na+]` [1000 mM Nal, sodium iodide]: in data set [1] (setting [17]), the “Log Reduction/mL (20° C.) 4 hr” value is 0.0. Also, in data set [1] (setting [13]), the “Log Reduction/mL (20° C.) 8 hr” value is given as 0.0. Also, the “Log Reduction/mL (20° C.) 24 hr” value in [1] (setting [11]) came to 0.1.
Turning to `[F-].[Li+]` [100 mM LiF, lithium fluoride], the “Log Reduction/mL (20° C.) 24 hr” value in [1] (setting [15]) is 0.0.
For `[F-].[K+]` [1000 mM KF, potassium fluoride], in [1] (setting [14]), the “Log Reduction/mL (20° C.) 8 hr” value is on record as 0.0. Besides, the “Log Reduction/mL (20° C.) 24 hr” value in data set [1] (setting [15]) is on record as 0.1. Besides, the “Log Reduction/mL (3 hr, 20° C., pH = 8)” value in data set [1] (20° C.) stood at 0.
In the case of `[F-].[Na+]` [1000 mM NaF, sodium fluoride], the “Log Reduction/mL (20° C.) 8 hr” value in [1] (setting [12]) and in data set [1] (setting [13]) was 0.0 in each case. For the same compound, in data set [1] (setting [11]), the “Log Reduction/mL (20° C.) 24 hr” value was 0.0.

The record behind these values is patent US20050238732A1, “Carbonated germicide with pressure control” (priority 2003, published 2005).
